# Measurements published in patent EP0900210B1, “ANTIVIRALLY ACTIVE HETEROCYCLIC AZAHEXANE DERIVATIVES” (Novartis AG, priority 1996, dated 1997).
# Biological target: T1, HIV-1-protease (Human immunodeficiency virus type 1 group M subtype B, UniProt P04585)
# T1 construct: made in house
# Experiment: Inhibition of HIV-1-protease with icosapeptide substrate […] (HPLC)
# Type: biochemical
# Settings: icosapeptide RRSNQVSQNYPIVQNIQGRR 122 µM, 20 mM MES pH 6.0, one hour at 37°C; read-out: IC50
# Procedure: The inhibitory action of the compounds of formula I on the proteolytic activity of HIV-1-protease can be shown, for example, according to known procedures (see A. D. Richards et al., J. Biol. Chem. 265(14), 7733-7736 (1990)). In that method the inhibition of the action of HIV-1-protease (preparation: see S. Billich et al., J. Biol. Chem. 263(34), 17905-17908 (1990)) is measured in the presence of the icosapeptide […] (a synthetic substrate of HIV-1-protease, prepared by peptide synthesis in accordance with known procedures (see J. Schneider et al., Cell 54, 363-368 (1988)), which contains as substrate analogue one of the cleavage sites of the gag-precursor protein (natural substrate of HIV-1-protease). That substrate and its cleavage products are analysed by high performance liquid chromatography (HPLC).
# The test compound is dissolved in dimethyl sulfoxide. The enzymatic test is carried out by adding suitable dilutions of the inhibitor in 20 mM β-morpholinoethanesulfonic acid (MES) buffer pH 6.0 to the test mixture. That mixture consists of the above-mentioned icosapeptide (122 µM) in 20 mM MES-buffer pH 6.0. 100 µl are used per test batch. The reaction is started by the addition of […] of HIV-1-protease solution and is stopped after one hour's incubation at 37°C by the addition of 10 µl of 0.3M HClO4. After centrifugation of the sample at 10 000 x g for 5 minutes, 20 µl of the resulting supernatant are applied to a 125 x 4.6 mm Nucleosil® C18-5m-HPLC column (reversed-phase material supplied by Macherey & Nagel, Düren, FRG, based on silica gel that has been charged with C18alkyl chains). The uncleaved icosapeptide and its cleavage products are eluted from the column by means of the following gradient: 100 % eluant 1 → 50 % eluant 1 + 50 % eluant 2 (eluant 1: 10 % acetonitrile, 90 % H2O, 0.1 % trifluoroacetic acid (TFA); eluant 2: 75 % acetonitrile, 25 % H2O, 0.08 % TFA) for 15 minutes, throughflow rate 1 ml/min. The quantification of the eluted peptide fragments is carried out by measuring the peak height of the cleavage product at 215 nm.
# Using the test system described above with the icosapeptide […], the IC50 values given below are obtained for the following Examples: […]
row,Compound,IC50
1,1-[4-(Pyrazin-2-yl)-phenyl]-4(S)-hydroxy-2-[N-(N-methoxycarbonyl-(L)-valyl)amino]-5(S)-[N-(N-methoxycarbonyl-(L)-tert-leucyl)amino]-6-phenyl-2-azahexane [Example 44],29 nM

# Same assay, conditions: icosapeptide […] 122 µM, 20 mM MES pH 6.0, one hour at 37°C; read-out: IC50
row,Compound,IC50
1,"COC(=O)N[C@H](C(=O)N[C@@H](Cc1ccccc1)[C@@H](O)CN(Cc1ccc(-c2nnnn2C)cc1)NC(=O)[C@@H](NC(=O)OC)C(C)(C)C)C(C)(C)C [27 (1-methyl-1H-tetrazolyl isomer), 1-[4-(1-methyl-1H-tetrazol-5-yl)-phenyl]-4(S)-hydroxy-5(S)-2,5-bis[N-(N-methoxycarbonyl-(L)-tert-leucyl)amino]-6-phenyl-2-azahexane]",51 nM
2,"COC(=O)N[C@H](C(=O)N[C@@H](Cc1ccccc1)[C@@H](O)CN(Cc1ccc(-c2cncs2)cc1)NC(=O)[C@@H](NC(=O)OC)C(C)C)C(C)C [Example 1, 1-[4-(Thiazol-5-yl)-phenyl]-4(S)-hydroxy-5(S)-2,5-bis[N-(N-methoxycarbonyl-(L)-valyl)amino]-6-phenyl-2-azahexane]",32 nM
3,"COC(=O)N[C@H](C(=O)NN(Cc1ccc(-c2cncs2)cc1)C[C@H](O)[C@H](Cc1ccccc1)NC(=O)[C@@H](NC(=O)OC)C(C)(C)C)C(C)C [Example 2, 1-[4-(Thiazol-5-yl)-phenyl]-4(S)-hydroxy-2-N-(N-methoxycarbonyl-(L)-valyl)-amino-5(S)-N-(N-methoxycarbonyl-(L)-tert-leucyl)amino-6-phenyl-2-azahexane]",14 nM
4,"COC(=O)N[C@H](C(=O)N[C@@H](Cc1ccccc1)[C@@H](O)CN(Cc1ccc(-c2cncs2)cc1)NC(=O)[C@@H](NC(=O)OC)C(C)(C)C)C(C)(C)C [Example 3, 1-[4-(Thiazol-5-yl)-phenyl]-4(S)-hydroxy-5(S)-2,5-bis[N-(N-methoxycarbonyl-(L)-tert-leucyl)amino]-6-phenyl-2-azahexane]",41 nM
5,"CC[C@H](C)[C@H](NC(=O)OC)C(=O)NN(Cc1ccc(-c2cncs2)cc1)C[C@H](O)[C@H](Cc1ccccc1)NC(=O)[C@@H](NC(=O)OC)C(C)(C)C [Example 4, 1-[4-(Thiazol-5-yl)-phenyl]-4(S)-hydroxy-2-N-(N-methoxycarbonyl-(L)-iso-leucyl)amino-5(S)-N-(N-methoxycarbonyl-(L)-tert-leucyl)amino-6-phenyl-2-azahexane]",38 nM
6,"COC(=O)N[C@@H](CSC)C(=O)NN(Cc1ccc(-c2cncs2)cc1)C[C@H](O)[C@H](Cc1ccccc1)NC(=O)[C@@H](NC(=O)OC)C(C)(C)C [Example 5, 1-[4-(Thiazol-5-yl)-phenyl]-4(S)-hydroxy-2-N-(N-methoxycarbonyl-(L)-S-methylcysteinyl)amino-5(S)-N-(N-methoxycarbonyl-(L)-tert-leucyl)amino-6-phenyl-2-azahexane]",40 nM
7,"CCOC(=O)N[C@H](C(=O)NN(Cc1ccc(-c2cncs2)cc1)C[C@H](O)[C@H](Cc1ccccc1)NC(=O)[C@@H](NC(=O)OC)C(C)(C)C)C(C)C [Example 6, 1-[4-(Thiazol-5-yl)-phenyl]-4(S)-hydroxy-2-N-(N-ethoxycarbonyl-(L)-valyl)-amino-5(S)-N-(N-methoxycarbonyl-(L)-tert-leucyl)amino-6-phenyl-2-azahexane]",22 nM
8,"COC(=O)N[C@H](C(=O)N[C@@H](Cc1ccccc1)[C@@H](O)CN(Cc1ccc(-c2cncs2)cc1)NC(=O)[C@@H](NC(=O)OC)C(C)(C)C)C(C)C [Example 7, 1-[4-(Thiazol-5-yl)-phenyl]-4(S)-hydroxy-2-N-(N-methoxcarbonyl-(L)-tert-leucyl)amino-5(S)-N-(N-methoxycarbonyl-(L)-valyl)amino-6-phenyl-2-azahexane]",13 nM
9,"CCOC(=O)N[C@H](C(=O)NN(Cc1ccc(-c2cncs2)cc1)C[C@H](O)[C@H](Cc1ccccc1)NC(=O)[C@@H](NC(=O)OC)C(C)C)C(C)C [Example 8, 1-[4-(Thiazol-5-yl)-phenyl]-4(S)-hydroxy-2-N-(N-ethoxycarbonyl-(L)-valyl)-amino-5(S)-N-(N-methoxycarbonyl-(L)-valyl)amino-6-phenyl-2-azahexane]",10 nM
10,"CC[C@H](C)[C@H](NC(=O)OC)C(=O)NN(Cc1ccc(-c2cncs2)cc1)C[C@H](O)[C@H](Cc1ccccc1)NC(=O)[C@@H](NC(=O)OC)C(C)C [Example 9, 1-[4-(Thiazol-5-yl)-phenyl]-4(S)-hydroxy-2-N-(N-methoxycarbonyl-(L)-isoleucyl)amino-5(S)-N-(N-methoxycarbonyl-(L)-valyl)amino-6-phenyl-2-azahexane]",19 nM
11,"COC(=O)N[C@@H](CSC)C(=O)NN(Cc1ccc(-c2cncs2)cc1)C[C@H](O)[C@H](Cc1ccccc1)NC(=O)[C@@H](NC(=O)OC)C(C)C [Example 10, 1-[4-(Thiazol-5-yl)-phenyl]-4(S)-hydroxy-2-N-(N-methoxycarbonyl-(L)-S-methylcysteinyl)amino-5(S)-N-(N-methoxycarbonyl-(L)-valyl)amino-6-phenyl-2-azahexane]",20 nM
12,"CC[C@H](C)[C@H](NC(=O)OC)C(=O)N[C@@H](Cc1ccccc1)[C@@H](O)CN(Cc1ccc(-c2cncs2)cc1)NC(=O)[C@@H](NC(=O)OC)C(C)(C)C [Example 11, 1-[4-(Thiazol-5-yl)-phenyl]-4(S)-hydroxy-2-N-(N-methoxycarbonyl-(L)-tert-leucyl)amino-5(S)-N-(N-methoxycarbonyl-(L)-iso-leucyl)amino-6-phenyl-2-azahexane]",37 nM
13,"CC[C@H](C)[C@H](NC(=O)OC)C(=O)N[C@@H](Cc1ccccc1)[C@@H](O)CN(Cc1ccc(-c2cncs2)cc1)NC(=O)[C@@H](NC(=O)OC)C(C)C [Example 12, 1-[4-(Thiazol-5-yl)-phenyl]-4(S)-hydroxy-2-N-(N-methoxycarbonyl-(L)-valyl)amino-5(S)-N-(N-methoxycarbonyl-(L)-iso-leucyl)amino-6-phenyl-2-azahexane]",20 nM
14,"CC[C@H](C)[C@H](NC(=O)OC)C(=O)N[C@@H](Cc1ccccc1)[C@@H](O)CN(Cc1ccc(-c2cncs2)cc1)NC(=O)[C@@H](NC(=O)OC)[C@@H](C)CC [Example 13, 1-[4-(Thiazol-5-yl)-phenyl]-4(S)-hydroxy-5(S)-2,5-bis[N-(N-methoxycarbonyl-(L)-iso-leucyl)amino]-6-phenyl-2-azahexane]",32 nM
15,"CCOC(=O)N[C@H](C(=O)NN(Cc1ccc(-c2cncs2)cc1)C[C@H](O)[C@H](Cc1ccccc1)NC(=O)[C@@H](NC(=O)OC)[C@@H](C)CC)C(C)C [Example 14, 1-[4-(Thiazol-5-yl)-phenyl]-4(S)-hydroxy-2-N-(N-ethoxycarbonyl-(L)-valyl)-amino-5(S)-N-(N-methoxycarbonyl-(L)-iso-leucyl)amino-6-phenyl-2-azahexane]",31 nM
16,"CC[C@H](C)[C@H](NC(=O)OC)C(=O)N[C@@H](Cc1ccccc1)[C@@H](O)CN(Cc1ccc(-c2cncs2)cc1)NC(=O)[C@H](CSC)NC(=O)OC [Example 15, 1-[4-(Thiazol-5-yl)-phenyl]-4(S)-hydroxy-2-N-(N-methoxycarbonyl-(L)-S-methylcysteinyl)amino-5(S)-N-(N-methoxycarbonyl-(L)-iso-leucyl)amino-6-phenyl-2-azahexane]",50 nM
17,"COC(=O)N[C@H](C(=O)N[C@@H](Cc1ccccc1)[C@@H](O)CN(Cc1ccc(-c2nccs2)cc1)NC(=O)[C@@H](NC(=O)OC)C(C)(C)C)C(C)(C)C [Example 16, 1-[4-(Thiazol-2-yl)-phenyl]-4(S)-hydroxy-5(S)-2,5-bis[N-(N-methoxycarbonyl-(L)-tert-leucyl)amino]-6-phenyl-2-azahexane]",33 nM
18,"COC(=O)N[C@H](C(=O)N[C@@H](Cc1ccccc1)[C@@H](O)CN(Cc1ccc(-c2nccs2)cc1)NC(=O)[C@@H](NC(=O)OC)C(C)(C)C)C(C)C [Example 17, 1-[4-(Thiazol-2-yl)-phenyl]-4(S)-hydroxy-2-N-(N-methoxycarbonyl-(L)-tert-leucyl)amino-5(S)-N-(N-methoxycarbonyl-(L)-valyl)amino-6-phenyl-2-azahexane]",18 nM
19,"CC[C@H](C)[C@H](NC(=O)OC)C(=O)NN(Cc1ccc(-c2nccs2)cc1)C[C@H](O)[C@H](Cc1ccccc1)NC(=O)[C@@H](NC(=O)OC)C(C)C [Example 18, 1-[4-(Thiazol-2-yl)-phenyl]-4(S)-hydroxy-2-N-(N-methoxycarbonyl-(L)-iso-leucyl)amino-5(S)-N-(N-methoxycarbonyl-(L)-valyl)amino-6-phenyl-2-azahexane]",25 nM
